Results taken from the supplement of paper PMC10307832.

How the values were obtained:
Experiment in all cases: relative viability (nuclei count vs DMSO), 5 days (fraction); higher = more cells survive
Dovitinib + Olaparib = compound: CN1CCN(c2ccc3nc(-c4c(N)c5c(F)cccc5[nH]c4=O)[nH]c3c2)CC1 [Dovitinib] + O=C(c1cc(Cc2n[nH]c(=O)c3ccccc23)ccc1F)N1CCN(C(=O)C2CC2)CC1 [Olaparib] (partner 8 µM)
Summary of the method: (§1)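 Lung cancer cell lines, seeded in 1536-well plates, were treated the following day by pin tool with a single drug or with five library-drug doses (not always all listed) in √10 steps on top of a fixed anchor-drug dose. Cells were fixed and nuclei stained in one step after 5 days, and nuclei were counted. Relative viability is the nuclei count for treated wells divided by that for vehicle wells, reported as medians of duplicate plates.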

Dovitinib + Palbociclib = compound: CN1CCN(c2ccc3nc(-c4c(N)c5c(F)cccc5[nH]c4=O)[nH]c3c2)CC1 [Dovitinib] + CC(=O)c1c(C)c2cnc(Nc3ccc(N4CCNCC4)cn3)nc2n(C2CCCC2)c1=O [Palbociclib] (partner 0.5 µM)
Summary of the method: as §1

Dovitinib + Alpelisib = compound: CN1CCN(c2ccc3nc(-c4c(N)c5c(F)cccc5[nH]c4=O)[nH]c3c2)CC1 [Dovitinib] + Cc1nc(NC(=O)N2CCC[C@H]2C(N)=O)sc1-c1ccnc(C(C)(C)C(F)(F)F)c1 [Alpelisib] (partner 2 µM)
Summary of the method: as §1

Dovitinib + Pemetrexed = compound: CN1CCN(c2ccc3nc(-c4c(N)c5c(F)cccc5[nH]c4=O)[nH]c3c2)CC1 [Dovitinib] + Nc1nc2[nH]cc(CCc3ccc(C(=O)N[C@@H](CCC(=O)O)C(=O)O)cc3)c2c(=O)[nH]1 [Pemetrexed] (partner 0.2 µM)
Summary of the method: as §1

Cell Line	relative viability (Dovitinib + Olaparib; first compound 0.02 µM)	relative viability (Dovitinib + Olaparib; first compound 0.06325 µM)	relative viability (Dovitinib + Olaparib; first compound 0.2 µM)	relative viability (Dovitinib + Olaparib; first compound 0.6325 µM)	relative viability (Dovitinib + Olaparib; first compound 2 µM)	relative viability (Dovitinib + Palbociclib; first compound 0.02 µM)	relative viability (Dovitinib + Palbociclib; first compound 0.06325 µM)	relative viability (Dovitinib + Palbociclib; first compound 0.2 µM)	relative viability (Dovitinib + Palbociclib; first compound 0.6325 µM)	relative viability (Dovitinib + Palbociclib; first compound 2 µM)	relative viability (Dovitinib + Alpelisib; first compound 0.02 µM)	relative viability (Dovitinib + Alpelisib; first compound 0.06325 µM)	relative viability (Dovitinib + Alpelisib; first compound 0.2 µM)	relative viability (Dovitinib + Alpelisib; first compound 0.6325 µM)	relative viability (Dovitinib + Alpelisib; first compound 2 µM)	relative viability (Dovitinib + Pemetrexed; first compound 0.02 µM)	relative viability (Dovitinib + Pemetrexed; first compound 0.06325 µM)	relative viability (Dovitinib + Pemetrexed; first compound 0.2 µM)	relative viability (Dovitinib + Pemetrexed; first compound 0.6325 µM)	relative viability (Dovitinib + Pemetrexed; first compound 2 µM)
HCC-366	0.324	0.352	0.412	0.297	0.324	0.377	0.364	0.372	0.396	0.402	0.545	0.393	0.478	0.505	0.446	0.129	0.208	0.161	0.161	0.166
HCC-827	0.626	0.697	0.646	0.68	0.678	0.527	0.461	0.409	0.53	0.528	0.931	0.926	0.918	0.987	1.03	0.259	0.119	0.245	0.264	0.25
HOP-62	0.346	0.559	0.425	0.329	0.352	0.355	0.456	0.465	0.396	0.499	0.804	0.844	1.27	0.896	0.829	0.272	0.337	0.32	0.269	0.385
IA-LM	0.723	0.812	0.916	0.795	0.845	–	–	–	–	–	0.732	0.78	0.854	0.911	0.765	–	–	–	–	–
LC-2-ad	0.691	0.666	0.734	0.775	0.741	0.484	0.449	0.472	0.484	0.504	0.873	0.833	0.728	0.8	0.74	0.27	0.29	0.306	0.259	0.269
LCLC-97TM1	0.371	0.443	0.369	0.364	0.255	0.252	0.26	0.236	0.185	0.209	0.222	0.23	0.171	0.247	0.276	0.16	0.155	0.198	0.184	0.163
LCLC-103H	0.765	0.763	0.751	0.759	0.718	0.482	0.454	0.496	0.474	0.462	0.875	0.973	0.918	1.06	0.761	0.494	0.457	0.475	0.434	0.459
LK-2	0.738	0.818	0.676	0.935	0.739	0.648	0.734	0.676	0.646	0.854	1.22	1.06	0.974	0.959	0.628	0.309	0.274	0.287	0.342	0.265
LOU-NH91	0.94	0.922	0.93	0.907	0.948	0.526	0.528	0.535	0.553	0.525	0.818	0.73	0.714	0.75	0.765	0.368	0.386	0.404	0.363	0.358
LU99A	0.256	0.279	0.275	0.276	0.281	0.388	0.37	0.387	0.423	0.406	0.492	0.561	0.43	0.461	0.559	0.169	0.304	0.165	0.217	0.18
NCI-H522	0.729	0.695	0.728	0.634	0.66	1.07	1.05	0.972	1.19	1.06	–	–	–	–	–	1.05	1.03	1.22	0.949	1.02
NCI-H596	0.672	0.688	0.65	0.687	0.627	–	–	–	–	–	0.462	0.542	0.563	0.499	0.457	0.512	0.493	0.506	0.51	0.532
NCI-H727	0.584	0.72	0.719	0.679	0.674	0.667	0.62	0.669	0.671	0.668	0.673	0.642	0.476	0.48	0.47	–	–	–	–	–
NCI-H1299	0.927	1.01	0.982	0.946	1.02	–	–	–	–	–	0.984	1.02	1.02	1.04	1.09	–	–	–	–	–
NCI-H1563	–	–	–	–	–	–	–	–	–	–	0.943	0.893	1.06	0.908	0.902	0.692	0.922	0.933	0.913	0.829
NCI-H1648	0.506	0.815	0.932	0.667	0.77	0.325	0.287	0.235	0.247	0.255	–	–	–	–	–	0.521	0.729	0.628	0.804	0.631
NCI-H1650	0.595	0.703	0.823	0.804	0.733	0.392	0.338	0.328	0.349	0.386	–	–	–	–	–	0.404	0.347	0.395	0.339	0.354
NCI-H1703	0.399	0.502	0.325	0.329	0.24	–	–	–	–	–	0.291	0.418	0.346	0.264	0.276	–	–	–	–	–
NCI-H2342	0.486	0.415	0.439	0.486	0.427	0.621	0.517	0.553	0.621	0.537	–	–	–	–	–	0.787	0.74	0.74	0.835	0.777
